Patent EP0903346A1, “SYDNONE IMINE DERIVATIVES” (Chugai Seiyaku Kabushiki Kaisha, priority 1995, dated 1997)

System: anesthetized rat
Experiment: Blood pressure-lowering effect in anesthetized rat
Format: in vivo
Conditions: duodenal administration; for Blood pressure-lowering effect ED30: dose causing a decrease in the blood pressure by 30%; for Blood pressure-lowering effect Half duration: half duration at ED30 (recovery to 50% of the maximum decrease in blood pressure)
Description: Male Sprague Dawley rats weighing 280 to 450 g were anesthetized with sodium pentobarbital (50 mg/kg, i.p.) and fixed in the supine position. A canula was inserted into the trachea of each animal. Then the blood pressure of the animal was measured (AP-621G, Nippon Kohden Corp.) through a polyethylene tube (PE50) inserted into the right femoral artery via a pressure transducer (Life Kit DTS, DX-300, Nippon Kohden Corp.) and the heart rate was determined from the pulse wave (AT-610G, Nippon Kohden Corp.). A canula (PE10) for injecting the maintenance anesthetic drug (sodium pentobarbital 20 mg/kg/h) was inserted into the right femoral vein. The abdominal region was medianly sectioned and a canula (PE50 connected to a injection needle 23G) for duodenal drug administration was inserted thereinto and fixed with Aronalpha for surgical use. After 60-90 minutes of recovery period, the drug was administered into duodenum. After administering the drug, the blood pressure was measured until the average blood pressure returned to the level before the administration.
As the indication of the blood pressure-lowering effect of each drug, the dose causing a decrease in the blood pressure by 30%, based on the level before the administration, was calculated from the dose-response curve and employed as the 30% effective dose (ED30). Moreover, the time required for the recovery to the level corresponding to 50% of the maximum decrease in the blood pressure (half duration) was measured at each dose. Then the half duration at the above-mentioned ED30 was calculated and employed as the indication of the lasting time of the blood pressure-lowering effect (half duration at ED30).
As the test compounds, use was made of the compounds of the present invention obtained in the above Examples. Table C summarizes the results. Table C

Row | Compound | Blood pressure-lowering effect ED30 [mg/kg] | Blood pressure-lowering effect Half duration [min]
1 | CCOC(=O)[N-]c1cn(N2CCOCC2)n[o+]1 [molsidomine, reference compound] | 0.3 | 39
2 | CCN1CCN([n+]2cc([N-]C(=O)CSC(C)=O)on2)CC1 [Example 85, N-(Acetylthioacetyl)-3-(4-ethylpiperazin-1-yl)sydnonimine] | 0.3 | 44
3 | CN1CCN([n+]2cc([N-]C(=O)CCSC(=O)Nc3ccccc3)on2)CC1 [Example 171, N-(3-(Phenylcarbamoylthio)propionyl)-3-(4-methylpiperazin-1-yl)sydnonimine] | 0.3 | 45
4 | CC(=O)N[C@@H](CSC(C)=O)C(=O)[N-]c1c[n+](N2CCN(C)CC2)no1 [Example 181, N-((R)-2-Acetylamino-3-(acetylthio)propionyl)-3-(4-methylpiperazin-1-yl)sydnonimine] | 0.8 | 60
5 | 3-(4-Benzylpiperazin-1-yl)-N-((3,4,5-trimethoxyphenyl)acetyl)sydnonimine [Example 17] | 1.4 | 21
6 | COc1cc(CC(=O)[N-]c2c[n+](N3CCN(C)CC3)no2)cc(OC)c1OC [Example 42, N-((3,4,5-Trimethoxyphenyl)acetyl)-3-(4-methylpiperazin-1-yl)sydnonimine] | 4.0 | 60
7 | CCNC(=O)SCCC(=O)[N-]c1c[n+](N2CCN(CC)CC2)no1 [Example 163, N-(3-(Ethylcarbamoylthio)propionyl)-3-(4-ethylpiperazin-1-yl)sydnonimine] | 0.2 | 44
8 | Cc1c(C)c2c(c(C)c1O)CCC(C)(C(=O)SCC(=O)[N-]c1c[n+](N3CCN(C)CC3)no1)O2 (stereo not drawn) [Example 191, N-((6-Hydroxy-2,5,7,8-tetramethylchroman-2-carbonylthio)acetyl)-3-(4-methylpiperazin-1-yl)sydnonimine] | 1.0 | 58
9 | CCN1CCN([n+]2cc([N-]C(=O)CCSC(=O)C(C)(C)C)on2)CC1 [Example 155, N-(3-(Pivaloylthio)propionyl)-3-(4-ethylpiperazin-1-yl)sydnonimine] | 0.2 | 46
10 | CN1CCN([n+]2cc([N-]C(=O)CCSc3cc(C(C)(C)C)c(O)c(C(C)(C)C)c3)on2)CC1 [Example 179, N-(3-(3,5-Di-t-butyl-4-hydroxyphenylthio)propionyl)-3-(4-methylpiperazin-1-yl)sydnonimine] | 0.9 | 43
11 | CC(=O)SC[C@@H](C)C(=O)[N-]c1c[n+](N2CCN(C(C)C)CC2)no1 [Example 80, N-((S)-3-(Acetylthio)isobutyryl)-3-(4-isopropylpiperazin-1-yl)sydnonimine] | 0.6 | 49
12 | Cc1cccc(C)c1C(=O)SCCC(=O)[N-]c1c[n+](N2CCN(C)CC2)no1 [Example 141, N-(3-(2,6-Dimethylbenzoylthio)propionyl)-3-(4-methylpiperazin-1-yl)sydnonimine] | 0.5 | 48
13 | CCN1CCN([n+]2cc([N-]C(=O)CCSC(=O)c3c(F)cccc3F)on2)CC1 [Example 146, N-(3-(2,6-Difluorobenzoylthio)propionyl)-3-(4-ethylpiperazin-1-yl)sydnonimine] | 0.6 | 45
14 | CC(=O)N[C@@H](CSC(C)=O)C(=O)[N-]c1c[n+](N2CCN(C(C)C)CC2)no1 [Example 183, N-((R)-2-Acetylamino-3-(acetylthio)propionyl)-3-(4-isopropylpiperazin-1-yl)sydnonimine] | 1.0 | 47
15 | CCN1CCN([n+]2cc([N-]C(=O)CCSC(C)=O)on2)CC1 [Example 122, N-(3-(Acetylthio)propionyl)-3-(4-ethylpiperazin-1-yl)sydnonimine] | 0.6 | 48
16 | CN1CCN([n+]2cc([N-]C(=O)CCCSC(=O)c3ccccc3)on2)CC1 [Example 174, N-(4-(Benzoylthio)butyryl)-3-(4-methylpiperazin-1-yl)sydnonimine] | 0.5 | 43
17 | C[C@H](CSC(=O)c1ccccc1)C(=O)[N-]c1c[n+](N2CCN(C3CCCC3)CC2)no1 [Example 72, N-((S)-3-(Benzoylthio)isobutyryl)-3-(4-cyclopentylpiperazin-1-yl)sydnonimine] | 1.3 | 47
18 | CC(C)N1CCN([n+]2cc([N-]C(=O)CCSC(=O)c3ccccc3)on2)CC1 [Example 129, N-(3-(Benzoylthio)propionyl)-3-(4-isopropylpiperazin-1-yl)sydnonimine] | 1.3 | 42
19 | C[C@H](CSC(=O)c1ccccc1)C(=O)[N-]c1c[n+](N2CCN(CC(F)(F)F)CC2)no1 [Example 70, N-((S)-3-(Benzoylthio)isobutyryl)-3-(4-(2,2,2-trifluoroethyl)piperazin-1-yl)sydnonimine] | 0.7 | 41
20 | C[C@H](CSC(=O)c1ccccc1)C(=O)[N-]c1c[n+](N2CCN(Cc3ccccc3)CC2)no1 [Example 18, N-((S)-3-(Benzoylthio)isobutyryl)-3-(4-benzylpiperazin-1-yl)sydnonimine] | 2.0 | 62
21 | CC(=O)SC[C@@H](C)C(=O)[N-]c1c[n+](N2CCN(C)CC2)no1 [Example 78, N-((S)-3-(Acetylthio)isobutyryl)-3-(4-methylpiperazin-1-yl)sydnonimine] | 1.0 | 40
22 | CC(C)N1CCN([n+]2cc([N-]C(=O)CCSC(=O)c3ccc(F)cc3)on2)CC1 [Example 137, N-(3-(4-Fluorobenzoylthio)propionyl)-3-(4-isopropylpiperazin-1-yl)sydnonimine] | 0.6 | 46
23 | CC(=O)SCCC(=O)[N-]c1c[n+](N2CCN(Cc3ccccc3)CC2)no1 [Example 119, N-(3-(Acetylthio)propionyl)-3-(4-benzylpiperazin-1-yl)sydnonimine] | 1.2 | 49
24 | Cc1cccc(C)c1C(=O)SCC(=O)[N-]c1c[n+](N2CCN(C)CC2)no1 [Example 132, N-((2,6-Dimethylbenzoylthio)acetyl)-3-(4-methylpiperazin-1-yl)sydnonimine] | 0.7 | 44
